Laboratory results from patent US20230391796A1, “GLYCOSIDASE INHIBITORS AND USES THEREOF” (UNIVERSIDAD DE SEVILLA (US) -UNIVERSITY OF SEVILLE (US), priority 2020, published 2023).
Where a name gives a salt, the structure may show the parent alone.

Assays:
Type in all cases: biochemical
[1] = target: T1, Recombinant Human Hexosaminidase B (HexB) (Homo sapiens, UniProt P07686); test: Inhibition assay against rhHexB, 4-methylumbelliferone N-acetyl-β-D-galactosaminide fluorescence; conditions: 5 nM HexB, 150 μM substrate, pH 5.5; NI = no inhibition detected at 200 μM; read-out: hHexB
T1 construct: purchased R&D Systems 8907-GH-020
T1 sequence (P07686 122-556): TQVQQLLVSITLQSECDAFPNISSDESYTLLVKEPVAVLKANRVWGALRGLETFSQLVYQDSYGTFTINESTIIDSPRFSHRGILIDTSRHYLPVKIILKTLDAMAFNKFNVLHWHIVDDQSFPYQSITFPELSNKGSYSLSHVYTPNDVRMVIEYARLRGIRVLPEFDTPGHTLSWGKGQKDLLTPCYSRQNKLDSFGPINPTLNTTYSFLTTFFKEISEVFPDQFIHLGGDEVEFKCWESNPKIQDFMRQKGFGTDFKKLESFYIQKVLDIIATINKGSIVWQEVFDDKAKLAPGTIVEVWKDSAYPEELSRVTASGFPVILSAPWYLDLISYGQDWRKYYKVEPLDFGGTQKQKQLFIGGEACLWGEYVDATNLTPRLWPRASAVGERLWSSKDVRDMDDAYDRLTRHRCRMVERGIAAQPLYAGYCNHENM
Method: Inhibition Assays Against rhHexB
Inhibition constant (Ki) values for compounds against Recombinant Human Hexosaminidase B (HexB) enzyme, purchased from R&D Systems (cat# 8907-GH-020) are determined by measuring the change in fluorescent signal corresponding to the rate of hydrolytic activity against the commercially available artificial substrate, 4-Methylumbelliferone N-acetyl-β-D-galactosaminide. HexB activity assays were performed in a buffer 100 mM MES at pH 5.5 and 5 nM [HexB]. Inhibition assays were in the presence or absence of various concentrations of inhibitors and at a fixed substrate concentration of 150 μM and 1% DMSO. First, inhibitor was serially diluted to the desired range of concentrations in 2% DMSO buffer. Next, 50 μL, of inhibitor solutions at various concentrations in 2% DMSO Buffer was added to 50 μL of 20 nM enzyme and allowed to incubate at 25° C. for 5 minutes. 100 μL, of 300 μM and 1% DMSO substrate was then added and reaction mixture was immediately mixed and aliquoted in 45 μL triplicates to a CORNING 384 well black plate. Fluorescence signal was measured continuously for 20 minutes at 25° C. in a BioTek Neo 2 Plate reader set at excitation and emission wavelengths of 355 and 450 nm, respectively. Max reaction rates for all inhibitor concentrations were calculated within Gen5 BioTek reader software. % Activity was subsequently calculated for each inhibitor concentration against the max reaction rate of uninhibited HexB. GraphPad Prism 2016 was used to approximate the Morrison Ki values for each inhibitor.

[2] = target: T2, Recombinant Human Hexosaminidase A (HexA) (Homo sapiens, UniProt P06865); test: Inhibition assay against rhHexA, 4-methylumbelliferone-N-acetyl-β-D-glucosaminide fluorescence; conditions: IC50 for lysosomal hHexA; NI = no inhibition detected at 200 μM
T2 construct: purchased R&D Systems 6237-GH-020
T2 sequence (P06865 89-529): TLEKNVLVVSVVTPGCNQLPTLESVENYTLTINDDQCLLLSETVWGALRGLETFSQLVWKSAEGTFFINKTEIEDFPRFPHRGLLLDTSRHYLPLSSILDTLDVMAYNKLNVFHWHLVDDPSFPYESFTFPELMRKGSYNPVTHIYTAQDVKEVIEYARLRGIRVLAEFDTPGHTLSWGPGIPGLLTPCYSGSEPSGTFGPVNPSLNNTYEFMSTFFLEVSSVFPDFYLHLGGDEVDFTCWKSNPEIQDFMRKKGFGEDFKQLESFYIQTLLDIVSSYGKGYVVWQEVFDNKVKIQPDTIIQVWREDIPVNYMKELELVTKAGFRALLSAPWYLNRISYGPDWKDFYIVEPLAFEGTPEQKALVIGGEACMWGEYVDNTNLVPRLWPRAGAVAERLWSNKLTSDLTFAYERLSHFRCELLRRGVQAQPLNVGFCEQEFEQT
Method: Inhibition Assays Against rhHexA
Human Hexosaminidase A (HexA) enzyme, purchased from R&D Systems (cat# 6237-GH-020), were determined by measuring the fluorescent signal corresponding to the rate of hydrolytic activity against the commercially available artificial substrate, 4-Methylumbelliferone-N-acetyl-β-D-glucosaminide. HexA activity assays were performed in a buffer of 100 mM sodium citrate, 250 NaCl, pH 4.5 and 1.0 nM [HexA], then stopped after 20 minutes with a solution of 1.0 M Tris, pH 9.5 to enhance fluorescent signal. Preliminary experiments have shown that reaction rates are linear for 20 minutes after substrate addition, and that 1.0 M Tris at pH 9.5 is sufficient for stopping activity, as signal is stable after stopping. Inhibition assays were run in the presence or absence of various concentrations of inhibitors and at a fixed substrate concentration of 100 μM and 1% DMSO. First, inhibitor was serially diluted to the desired range of concentrations in 2% DMSO buffer. Next, 25 μL, of inhibitor solutions at various concentrations in 2% DMSO Buffer was added to 25 μL, of 4.0 nM enzyme and allowed to incubate at 25° C. for 5 minutes. 50 μL of 200 μM and 1% DMSO substrate was then added and allowed to react for 20 minutes. 100 μL of stop solution was added to reaction mixture, and immediately mixed and aliquoted in 45 μL triplicates to a CORNING 384 well black plate. Fluorescence signal was measured in a BioTek Neo 2 Plate reader set at excitation and emission wavelengths of 355 and 450 nm, respectively. % Activity was subsequently calculated for each inhibitor concentration against the fluorescence signal of uninhibited HexA. […]

[3] = target: β-N-acetylglucosaminidase (from bovine kidney); test: Inhibition assay against commercial β-N-acetylglucosaminidase (bovine kidney), p-nitrophenyl N-acetyl-β-D-glucosaminide substrate; conditions: pH 5.5, 37° C.; average of three determinations ± s.e.m.; NI = no inhibition detected at 200 μM; read-out: Bovine kidney Hex
Method: (§1) Inhibition Assays Against Commercial β-N-acetylglucosaminidases
(§2) Inhibition constant (Ki) values were determined by spectrophotometrically measuring the residual hydrolytic activities of the glycosidases against p-nitrophenyl N-acetyl-β-D-glucosaminide. […] Each assay was performed in phosphate-citrate buffer and the reactions were initiated by addition of the enzyme to a solution of the substrate in the absence or presence of various inhibitor concentrations. The mixture was incubated for 10-30 min at 37° C. and the reaction was quenched by addition of 1 M Na2CO3. Reaction times were appropriate to obtain 10-20% conversion of the substrate in order to achieve linear rates. The absorbance of the resulting mixture was determined at 405 nm. Approximate values of Ki were determined using a fixed concentration of substrate (around the Km value for the different glycosidases) and various inhibitor concentrations. Full Ki determinations and enzyme inhibition mode were determined from the slope of Lineweaver-Burk plots and double reciprocal analysis using a Microsoft Office Excel 2007 program.

[4] = target: β-N-acetylglucosaminidase (from jack bean); test: Inhibition assay against commercial β-N-acetylglucosaminidase (jack bean), p-nitrophenyl N-acetyl-β-D-glucosaminide substrate; conditions: pH 5.5, 37° C.; average of three determinations ± s.e.m.; NI = no inhibition detected at 200 μM; read-out: Jack beans Hex
Method: as §1, §2

CC(C)C(=O)N[C@H]1CN2/C(=N/Cc3ccccc3)SC[C@@H]2[C@@H](O)[C@@H]1O [Compound 16, 2-Isobutanamido-5-N,6-S-(N′-benzyliminomethylidene)-1,2-dideoxy-6-thionojirimycin Hydrochloride]
> 200 µM: Ki [1] | IC50 [2] | Ki [3] | Ki [4]

CCC(=O)N[C@H]1CN2/C(=N/Cc3cccc4ccccc34)SC[C@@H]2[C@@H](O)[C@@H]1O [Compound 14, 2-Propionamido-5-N,6-S-(N′-1-naphthylmethyliminomethylidene)-1,2-dideoxy-6-thionojirimycin hydrochloride]
> 200 µM: Ki [1] | IC50 [2] | Ki [3] | Ki [4]

CCCNC(=S)N[C@H]1CN2/C(=N/Cc3ccccc3)SC[C@@H]2[C@@H](O)[C@@H]1O [Compound 19, 2-Propylthioureido-5-N,6-S-(N′-benzyliminomethylidene)-1,2-dideoxy-6-thionojirimycin]
> 200 µM: Ki [1] | IC50 [2] | Ki [3] | Ki [4]

CCNC(=S)N[C@H]1CN2/C(=N/Cc3ccccc3)SC[C@@H]2[C@@H](O)[C@@H]1O [Compound 18, 2-Ethylthioureido-5-N,6-S-(N′-benzyliminomethylidene)-1,2-dideoxy-6-thionojirimycin]
> 200 µM: Ki [1] | IC50 [2] | Ki [3] | Ki [4]

CCC(=O)N[C@H]1CN2/C(=N/Cc3ccc4[nH]ccc4c3)SC[C@@H]2[C@@H](O)[C@@H]1O [Compound 15, 2-Propionamido-5-N,6-S-(N′-5-indolylmethyliminomethylidene)-1,2-dideoxy-6-thionojirimycin hydrochloride]
> 200 µM: Ki [1] | IC50 [2] | Ki [3] | Ki [4]

CCC(=O)N[C@H]1CN2/C(=N/Cc3ccccc3)SC[C@@H]2[C@@H](O)[C@@H]1O [Compound 13, 2-Propanamido-5-N,6-S-(N′-benzyliminomethylidene)-1,2-dideoxy-6-thionojirimycin Hydrochloride]
> 200 µM: Ki [1] | IC50 [2] | Ki [3] | Ki [4]

CCCC(=O)N[C@H]1CN2/C(=N/Cc3ccccc3)SC[C@@H]2[C@@H](O)[C@@H]1O [Compound 17, 2-Butanamido-5-N,6-S-(N′-benzyliminomethylidene)-1,2-dideoxy-6-thionojirimycin]
> 200 µM: Ki [1] | IC50 [2] | Ki [3] | Ki [4]
